In the assay the test system is M. tuberculosis. Put plainly: Extracellular activity against M. tuberculosis in cholesterol media (Alamar Blue reduction assay). It counts as cell-based, Mycobacterium tuberculosis. To be noted: Mycobacterium tuberculosis, 240 h, 7H12-Cholesterol media, 10 days; read-out: Cholesterol broth: alamar blue--EC50.

A value given as a limit tells only on which side of the number the result lay.

The term EC50 denotes the concentration giving half of the maximal effect. Take `Cn1cnc(CC(=O)N2CCC(c3nc(-c4ccc(Cl)c(Cl)c4)no3)CC2)n1` [Compound 153, 1-(4-(3-(3,4-dichlorophenyl)-1,2,4-oxadiazol-5-yl)piperidin-1-yl)-2-(1-methyl-1H-1,2,4-triazol-3-yl)ethan-1-one]: the half-maximal effective concentration (EC50) was above 10000 nM. With `Cn1cnc(CC(=O)N2CCC(c3nc(-c4ccc(F)cc4)no3)CC2)n1` [Compound 154, 1-(4-(3-(4-fluorophenyl)-1,2,4-oxadiazol-5-yl)piperidin-1-yl)-2-(1-methyl-1H-1,2,4-triazol-3-yl)ethan-1-one], the EC50 was above 10000 nM. To `Cn1cnnc1CC(=O)N1CCC(c2nc(-c3ccc(F)cc3)no2)CC1` [Compound 155, 1-(4-(3-(4-fluorophenyl)-1,2,4-oxadiazol-5-yl)piperidin-1-yl)-2-(4-methyl-4H-1,2,4-triazol-3-yl)ethan-1-one] belongs above 10000 nM; to `Cn1cnnc1CC(=O)N1CCC(n2nnc(-c3ccc(F)cc3)n2)CC1` [Compound 156, 1-(4-(5-(4-fluorophenyl)-2H-tetrazol-2-yl)piperidin-1-yl)-2-(4-methyl-4H-1,2,4-triazol-3-yl)ethan-1-one], above 10000 nM; to `Cn1ncnc1CC(=O)N1CCC(c2nc(C3CC4CCC3C4)no2)CC1` (stereo not drawn) [Compound 157, 1-(4-(3-(bicyclo[2.2.1]heptan-2-yl)-1,2,4-oxadiazol-5-yl)piperidin-1-yl)-2-(1-methyl-1H-1,2,4-triazol-5-yl)ethan-1-one], 1860 nM. To `Cn1ncnc1CC(=O)N1CCC(c2nc([C@@H]3CC[C@@](C)(F)C3)no2)CC1` [Compound 158, 1-(4-(3-((1R,3R)-3-fluoro-3-methylcyclopentyl)-1,2,4-oxadiazol-5-yl)piperidin-1-yl)-2-(1-methyl-1H-1,2,4-triazol-5-yl)ethan-1-one] belongs above 10000 nM. To `Cn1ncnc1CC(=O)N1CCC(c2nc([C@@H]3CC[C@](C)(F)C3)no2)CC1` [Compound 159, 1-(4-(3-((1R,3S)-3-fluoro-3-methylcyclopentyl)-1,2,4-oxadiazol-5-yl)piperidin-1-yl)-2-(1-methyl-1H-1,2,4-triazol-5-yl)ethan-1-one] belongs above 10000 nM. In the case of `Cn1ncnc1CC(=O)N1CCC(c2nc(C3CCC(C)(F)CC3)no2)CC1` (stereo not drawn) [Compound 160, 1-(4-(3-(4-fluoro-4-methylcyclohexyl)-1,2,4-oxadiazol-5-yl)piperidin-1-yl)-2-(1-methyl-1H-1,2,4-triazol-5-yl)ethan-1-one], the concentration for a half-maximal effect (EC50) is above 10000 nM. To `Cn1ncnc1CC(=O)N1CCC(c2noc(C34CC(C)(C3)C4)n2)CC1` [Compound 161, 2-(1-methyl-1H-1,2,4-triazol-5-yl)-1-(4-(5-(3-methylbicyclo[1.1.1]pentan-1-yl)-1,2,4-oxadiazol-3-yl)piperidin-1-yl)ethan-1-one] belongs above 10000 nM. For `Cn1ncnc1CC(=O)N1CCC(c2nc(C34CC(C)(C3)C4)no2)CC1` [Compound 162, 2-(1-methyl-1H-1,2,4-triazol-5-yl)-1-(4-(3-(3-methylbicyclo[1.1.1]pentan-1-yl)-1,2,4-oxadiazol-5-yl)piperidin-1-yl)ethan-1-one], the EC50 was above 10000 nM. To `Cn1ncnc1CC(=O)N1CCC(c2nc(-c3ccc(Cl)cc3Cl)no2)CC1` [Compound 163, 1-(4-(3-(2,4-dichlorophenyl)-1,2,4-oxadiazol-5-yl)piperidin-1-yl)-2-(1-methyl-1H-1,2,4-triazol-5-yl)ethan-1-one] belongs 200 nM.

Turning to `Cn1ncnc1CC(=O)N1CCC(c2nc(-c3ccc(Cl)c(Cl)c3)no2)CC1` [Compound 164, 1-(4-(3-(3,4-dichlorophenyl)-1,2,4-oxadiazol-5-yl)piperidin-1-yl)-2-(1-methyl-1H-1,2,4-triazol-5-yl)ethan-1-one], the EC50 came to 64.7 nM. To `Cn1ncnc1CC(=O)N1CCC(n2nnc(-c3ccc(Cl)c(Cl)c3)n2)CC1` [Compound 165, 1-(4-(5-(3,4-dichlorophenyl)-2H-tetrazol-2-yl)piperidin-1-yl)-2-(1-methyl-1H-1,2,4-triazol-5-yl)ethan-1-one] belongs 100 nM; to `Cn1ncnc1CC(=O)N1CCC(c2noc(-c3ccc(Cl)c(Cl)c3)n2)CC1` [Compound 166, 1-(4-(5-(3,4-dichlorophenyl)-1,2,4-oxadiazol-3-yl)piperidin-1-yl)-2-(1-methyl-1H-1,2,4-triazol-5-yl)ethan-1-one], 710 nM; to `Cn1ncnc1CC(=O)N1CCC(c2nc(-c3ccc(Cl)cc3)no2)CC1` [Compound 167, 1-(4-(3-(4-chlorophenyl)-1,2,4-oxadiazol-5-yl)piperidin-1-yl)-2-(1-methyl-1H-1,2,4-triazol-5-yl)ethan-1-one], 221 nM.

For the compound `Cn1ncnc1CC(=O)N1CCC(n2nnc(-c3ccc(Cl)cc3)n2)CC1` [Compound 168, 1-(4-(5-(4-chlorophenyl)-2H-tetrazol-2-yl)piperidin-1-yl)-2-(1-methyl-1H-1,2,4-triazol-5-yl)ethan-1-one], the EC50 was determined as 472 nM. To `Cn1ncnc1CC(=O)N1CCC(c2nc(-c3ccc(Cl)c(OC(F)(F)F)c3)no2)CC1` [Compound 169, 1-(4-(3-(4-chloro-3-(trifluoromethoxy)phenyl)-1,2,4-oxadiazol-5-yl)piperidin-1-yl)-2-(1-methyl-1H-1,2,4-triazol-5-yl)ethan-1-one] belongs 330 nM; to `Cn1ncnc1CC(=O)N1CCC(c2nc(-c3ccc(OC(F)(F)F)cc3)no2)CC1` [Compound 170, 2-(1-methyl-1H-1,2,4-triazol-5-yl)-1-(4-(3-(4-(trifluoromethoxy)phenyl)-1,2,4-oxadiazol-5-yl)piperidin-1-yl)ethan-1-one], 130 nM; to `Cn1ncnc1CC(=O)N1CCC(n2nnc(-c3ccc(C(F)(F)F)cc3)n2)CC1` [Compound 171, 2-(1-methyl-1H-1,2,4-triazol-5-yl)-1-(4-(5-(4-(trifluoromethyl)phenyl)-2H-tetrazol-2-yl)piperidin-1-yl)ethan-1-one], 963 nM.

For the compound `Cn1ncnc1CC(=O)N1CCC(c2nc(-c3ccc(C(F)F)cc3)no2)CC1` [Compound 172, 1-(4-(3-(4-(difluoromethyl)phenyl)-1,2,4-oxadiazol-5-yl)piperidin-1-yl)-2-(1-methyl-1H-1,2,4-triazol-5-yl)ethan-1-one], the concentration for a half-maximal effect (EC50) was found to be 2070 nM. In the case of `Cn1ncnc1CC(=O)N1CCC(c2noc(C34CC(F)(C3)C4)n2)CC1` [Compound 173, 1-(4-(5-(3-fluorobicyclo[1.1.1]pentan-1-yl)-1,2,4-oxadiazol-3-yl)piperidin-1-yl)-2-(1-methyl-1H-1,2,4-triazol-5-yl)ethan-1-one], the half-maximal effective concentration (EC50) was above 10000 nM. `Cn1ncnc1CC(=O)N1CCC(c2nc(-c3ccc(CF)cc3)no2)CC1` [Compound 174, 1-(4-(3-(4-(fluoromethyl)phenyl)-1,2,4-oxadiazol-5-yl)piperidin-1-yl)-2-(1-methyl-1H-1,2,4-triazol-5-yl)ethan-1-one]: the concentration giving a half-maximal response (EC50) is 2260 nM. Consider `Cn1ncnc1CC(=O)N1CCC(c2nc(-c3ccc(S(F)(F)(F)(F)F)cc3)no2)CC1` [Compound 175, 2-(1-methyl-1H-1,2,4-triazol-5-yl)-1-(4-(3-(4-(pentafluoro-16-sulfaneyl)phenyl)-1,2,4-oxadiazol-5-yl)piperidin-1-yl)ethan-1-one], for which the EC50 is 1630 nM.

As for `Cn1ncnc1CC(=O)N1CCC(c2nc(-c3ccc(Cl)c(F)c3)no2)CC1` [Compound 176, 1-(4-(3-(4-chloro-3-fluorophenyl)-1,2,4-oxadiazol-5-yl)piperidin-1-yl)-2-(1-methyl-1H-1,2,4-triazol-5-yl)ethan-1-one], the EC50 was determined as 115 nM.

In the case of `Cn1ncnc1CC(=O)N1CCC(n2nnc(-c3ccc(Cl)c(F)c3)n2)CC1` [Compound 177, 1-(4-(5-(4-chloro-3-fluorophenyl)-2H-tetrazol-2-yl)piperidin-1-yl)-2-(1-methyl-1H-1,2,4-triazol-5-yl)ethan-1-one], the EC50 was found to be 170 nM. To `Cn1ncnc1CC(=O)N1CCC(c2nc(-c3ccc(Cl)cc3F)no2)CC1` [Compound 178, 1-(4-(3-(4-chloro-2-fluorophenyl)-1,2,4-oxadiazol-5-yl)piperidin-1-yl)-2-(1-methyl-1H-1,2,4-triazol-5-yl)ethan-1-one] belongs 200 nM. For `Cn1ncnc1CC(=O)N1CCC(c2nc(-c3ccc(F)cc3Cl)no2)CC1` [Compound 179, 1-(4-(3-(2-chloro-4-fluorophenyl)-1,2,4-oxadiazol-5-yl)piperidin-1-yl)-2-(1-methyl-1H-1,2,4-triazol-5-yl)ethan-1-one], the concentration for a half-maximal effect (EC50) amounted to 1970 nM.

Turning to `Cn1ncnc1CC(=O)N1CCC(c2nc(-c3ccc(F)cc3F)no2)CC1` [Compound 180, 1-(4-(3-(2,4-difluorophenyl)-1,2,4-oxadiazol-5-yl)piperidin-1-yl)-2-(1-methyl-1H-1,2,4-triazol-5-yl)ethan-1-one], the 50% effective concentration (EC50) is 480 nM.

Regarding `Cn1ncnc1CC(=O)N1CCC(c2nc(-c3ccc(F)c(C(F)(F)F)c3)no2)CC1` [Compound 181], the EC50 stood at 467 nM.

Take `Cn1ncnc1CC(=O)N1CCC(n2nnc(-c3ccc(F)c(Cl)c3)n2)CC1` [Compound 182, 1-(4-(5-(3-chloro-4-fluorophenyl)-2H-tetrazol-2-yl)piperidin-1-yl)-2-(1-methyl-1H-1,2,4-triazol-5-yl)ethan-1-one]: the EC50 turned out to be 370 nM. To `Cn1ncnc1CC(=O)N1CCC(c2nc(-c3ccc(F)c(Cl)c3)no2)CC1` [Compound 183, 1-(4-(3-(3-chloro-4-fluorophenyl)-1,2,4-oxadiazol-5-yl)piperidin-1-yl)-2-(1-methyl-1H-1,2,4-triazol-5-yl)ethan-1-one] belongs 210 nM.

Turning to `Cn1ncnc1CC(=O)N1CCC(c2nc(-c3ccc(F)c(F)c3)no2)CC1` [Compound 184, 1-(4-(3-(3,4-difluorophenyl)-1,2,4-oxadiazol-5-yl)piperidin-1-yl)-2-(1-methyl-1H-1,2,4-triazol-5-yl)ethan-1-one], the EC50 was found to be 458 nM.

Turning to `Cn1ncnc1CC(=O)N1CCC(n2nnc(-c3ccc(F)c(F)c3)n2)CC1` [Compound 185, 1-(4-(5-(3,4-difluorophenyl)-2H-tetrazol-2-yl)piperidin-1-yl)-2-(1-methyl-1H-1,2,4-triazol-5-yl)ethan-1-one], the EC50 is 740 nM.

Values taken from patent US20260048047A1, “SMALL-MOLECULE ACTIVATORS OF MYCOBACTERIUM TUBERCULOSIS ADENYLYL CYCLASE” (priority 2022, published 2026).
